Source: patent publication US20220008563A1, “RADIOLABELLED AND NONRADIOLABELLED PEGYLATED COMPOUNDS AND USES THEREOF” (The Regents of the University of California, priority 2020, published 2022)

Columns and labels:
MAO-A = target: T1, MAO-A (Homo sapiens, UniProt P21397); assay: Effect of drugs on the binding of [^18F]FAZIN3 in postmortem human brain sections; settings: for selectivity of binding for MAO-A versus MAO-B: by use of clorgyline (MAO-A inhibitor) and deprenyl (MAO-B inhibitor)
T1 construct: tissue Banner Sun Health Research Institute; host or cells: postmortem human anterior cingulate / corpus callosum sections (CN, AD, PD subjects)
T1 sequence (P21397 1-527): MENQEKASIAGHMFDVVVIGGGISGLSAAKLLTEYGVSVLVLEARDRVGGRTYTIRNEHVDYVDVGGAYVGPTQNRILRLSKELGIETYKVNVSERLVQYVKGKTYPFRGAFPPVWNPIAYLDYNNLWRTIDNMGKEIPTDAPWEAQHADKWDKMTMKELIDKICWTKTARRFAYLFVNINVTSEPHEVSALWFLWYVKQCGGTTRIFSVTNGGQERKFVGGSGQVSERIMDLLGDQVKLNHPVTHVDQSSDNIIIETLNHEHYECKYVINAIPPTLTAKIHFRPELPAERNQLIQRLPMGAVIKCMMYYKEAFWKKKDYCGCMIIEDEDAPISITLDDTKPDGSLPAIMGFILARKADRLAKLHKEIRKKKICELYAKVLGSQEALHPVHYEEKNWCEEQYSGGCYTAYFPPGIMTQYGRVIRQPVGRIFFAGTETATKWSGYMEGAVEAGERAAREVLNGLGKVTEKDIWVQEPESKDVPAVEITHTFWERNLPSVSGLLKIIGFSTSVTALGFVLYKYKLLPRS
Protocol: MK-6240 (10 μM) was used since it is known to bind to Tau. […] The slides containing the sections (10 μm thick) were preincubated in PBS buffer for 15 minutes in eight different slide chambers (one total binding and seven with the different drugs). The preincubation PBS buffer was discarded and appropriate amount of each drug (dissolved in ethanol) was added to the chambers with the slides. […] The chambers were incubated at 25° C. for 1.25 h. The slides were then washed with cold PBS buffer twice, and cold water, respectively. The slides with the brain sections were air dried, exposed overnight on a phosphor film, and then placed on the Phosphor Autoradiographic Imaging System/Cyclone Storage Phosphor System (Packard Instruments Co).

Tau protein [1] = target: Tau protein (Homo sapiens, UniProt P10636); assay: In vitro binding in human AD brain slices using [^125I]IPPI; settings: [^125I]IPPI labeled human AD brain slices
Protocol: Assessing the binding specificity of Flotaza. In vitro binding affinity of Flotaza in human AD brain slices using [^3H]PIB for Aβ plaques and [^125I]IPPI for Tau were carried out. […] Thus, Flotaza is a selective Aβ plaque agent.

Aβ plaques [2] = assay: Postmortem human brain autoradiography of [^18F]Flotaza in AD subjects; format: binding
From the text: Postmortem human brain autoradiography [^18F]Flotaza in AD subjects. Well characterized brain samples were obtained from Banner Health Research Institute. Brain slices from six AD subjects included anterior cingulate (gray matter, GM) and corpus callosum (white matter, WM) as shown for one subject in FIG. 24A. The AD brain sections of the six AD subjects were further confirmed to contain Aβ plaques in the GM regions by immunostaining with anti-Aβ Biolegend (known to stain Aβ1-16) as shown in FIG. 24B.
It must be noted that in these experiments, after [^18F]Flotaza binding, the slices were washed with 50% alcohol in PBS buffer.

human Aβ plaques = human Aβ plaques (Homo sapiens, UniProt P05067); assay: In vitro binding affinity in human AD brain slices using [^3H]PIB; settings: human AD brain slices (anterior cingulate, corpus callosum)
Protocol: Analytical thin-layer chromatography (TLC) was used to monitor reactions (Baker-flex, Phillipsburg, N.J., USA). RadioTLC were scanned on an AR-2000 imaging scanner (Eckart & Ziegler, Berlin, Germany). Electrospray mass spectra were obtained from a Model 7250 mass spectrometer (Micromass LCT). Proton NMR spectra were recorded on a Bruker OM EGA 500-MHz spectrometer. Tritium was assayed by using a Packard Tri-Carb Liquid scintillation counter with 65% efficiency. Human postmortem brain tissue samples were obtained from Banner Sun Health Research Institute, Sun City, Ariz. brain tissue repository for in vitro experiments. Age and gender matched AD brain and cognitively normal (CN) brain tissue samples selected for end-stage pathology (Braak & Braak stage of VI; Braak and Braak 1991). Human postmortem brain slices were obtained from chunks of frozen tissue on a Leica 1850 cryotome cooled to −20° C. Tritium and iodine-125, and fluorine-18 autoradiographic studies were carried out by exposing tissue samples on storage phosphor screens (Perkin Elmer Multisensitive, Medium MS and tritium sensitive phosphor screens). The apposed phosphor screens were read and analyzed by OptiQuant acquisition and analysis program of the Cyclone Storage Phosphor System (Packard Instruments Co., Boston, Mass.). […]

Aβ plaques [3] = settings: hippocampal AD brain sections; cited from earlier work
Tau protein [4] = assay: [^125I]IPPI / [^124I]IPPI autoradiography of postmortem AD brain slices; format: binding, human
Protocol: FIG. 18A-H: provides the results of [^125I]IPPI competitive binding assay with various inhibitors. (A) Postmortem human brain 10 μm thick sections (from two AD subjects, 11-107 and 11-38) of anterior cingulate (AC) grey matter (arrows showing GM) and corpus callosum (CC) white matter (WM). (B) [^125I]IPPI binding to grey matter, AC with low nonspecific binding in white matter, CC. […] (E) BrPPI, 10 μM effect on [^125I ]IPPI binding. (F) MK-6240, 10μM effect on [^125I]IPPI binding. (G) Immunostaining of 11-38 with Dako A0024 for total Tau; (i) picture of entire slice and (ii) magnification (x10) of box in (i). (H) Plot comparing GM and WM in the two AD subjects with different drugs.

Aβ plaques [5] = assay: ^125I-IAZA brain autoradiography in postmortem human AD brain; format: binding; settings: anterior cingulate
From the text: FIG. 22A-F provides the results of brain autoradiography in postmortem human brain from an Alzheimer patient using ^125I-IAZA and ^124I-IAZA. (A) AD brain slice showing gray matter (GM), anterior cingulate and white matter (WM) corpus callosum. […] (D) AD brain cortex slice showing gray matter on the left edges. (E)-(F) ^125I-IAZA binding in the outer regions containing gray matter which is consistent with Tau buildup.

Sequence of human Aβ plaques (P05067 672-713): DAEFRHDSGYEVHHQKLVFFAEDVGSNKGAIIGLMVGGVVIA
Sequence of Tau protein (Homo sapiens, UniProt P10636) (P10636 with tags, fused parts or gaps): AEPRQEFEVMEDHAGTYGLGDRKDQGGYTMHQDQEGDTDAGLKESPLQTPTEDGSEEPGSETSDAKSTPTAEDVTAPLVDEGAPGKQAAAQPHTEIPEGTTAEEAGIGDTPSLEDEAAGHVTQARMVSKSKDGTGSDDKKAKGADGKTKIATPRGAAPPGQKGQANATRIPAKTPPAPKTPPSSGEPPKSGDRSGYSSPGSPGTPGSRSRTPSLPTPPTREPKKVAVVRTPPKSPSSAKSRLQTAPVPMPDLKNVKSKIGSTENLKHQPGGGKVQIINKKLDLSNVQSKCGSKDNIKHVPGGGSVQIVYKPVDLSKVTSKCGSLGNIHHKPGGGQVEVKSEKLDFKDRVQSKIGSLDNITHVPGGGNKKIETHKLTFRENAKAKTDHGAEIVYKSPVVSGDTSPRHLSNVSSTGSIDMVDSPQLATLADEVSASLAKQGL

For “4-O-[^18F]FluoroPEG3-2-(1H-pyrrolo[2,3-c]pyridine-1-yl)pyridine [[^18F]FAZIN3]”, the “selectivity of binding for MAO-A versus MAO-B” value (MAO-A) was “selective MAO-A binding”.
With FCCOCCOCCOc1ccnc(-n2ccc3ccncc32)c1 [FAZIN3, 4-O-FluoroPEG3-2-(1H-pyrrolo[2,3-c]pyridine-1-yl)pyridine] the “selectivity of binding for MAO-A versus MAO-B” value (MAO-A) was “selectively bound to MAO-A”.
With CN(C)c1ccc(N=Nc2ccc(OCCOCCOCCF)cc2)cc1 [Flotaza] the “effect on the binding of [^125I]IPPI” value (Tau protein [1]) was “did not have any significant effect”.
With Nc1c(F)ccc2cnc(-n3ccc4ccncc43)cc12 [MK-6240, reference compound] the “displacement (inhibition) of [^18F]FAZIN3 binding” value (MAO-A; drug 10 μM, human brain sections) was “did not have much effect”.
For CNc1ccc(-c2nc3ccc(O)cc3s2)cc1 [PIB, reference compound], the “effect on grey matter binding of [^18F]Flotaza” value (Aβ plaques [2]; AD brain sections treated with the drug) was “significantly reduced”.
For CNc1ccc(N=Nc2ccc(N(C)C)cc2)cc1 [TAZA], the Ki (human Aβ plaques) was 0.54 nM.
In the case of [11CH3]Nc1ccc(-c2nc3ccc(O)cc3s2)cc1 [[^11C]PIB], the GM/WM ratios (Aβ plaques [3]) is given as “lower GM/WM ratios”.
For CN(C)c1ccc(N=Nc2ccc(OCCOCCOCC[18F])cc2)cc1 [[^18F]Flotaza], the “binding in the grey matter regions of AD subjects” value (Aβ plaques [2]; anterior cingulate, AD subjects) was “Extensive binding” and the “ratio between gray matter and white matter binding” value (Aβ plaques [2]; six AD subjects, slices washed with 50% alcohol in PBS buffer) was greater than 100.
For [125I]c1ccc2cnc(-n3ccc4ccncc43)cc2c1 [[^125I]IPPI, 6-[^125I]iodo-3-(1H-pyrrolo[2,3-c]pyridine-1-yl)isoquinoline], the “sensitivity of binding to MAO inhibitors” value (Tau protein [4]; MAO inhibitors at <1 μM concentrations) was “resistance to MAO inhibitors” and the “binding to Tau protein / neurofibrillary tangles in Alzheimer's disease brain grey matter” value (Tau protein [4]; postmortem AD brain slices) was “Excellent binding”.
In the case of CN(C)c1ccc(N=Nc2ccc([125I])cc2)cc1 [^125I-IAZA], the “binding in gray matter of AD brain slices” value (Aβ plaques [5]) is reported as “binding in the gray matter regions”.
